# Reference: paper PMC8498006 (Advances in Redox Research, 2021)
# Assays:
# [1] = target: SARS-CoV-2 M^pro (MBP-tagged main protease) (Severe acute respiratory syndrome coronavirus 2, UniProt P0DTD1); test: biochemical; conditions: for suppressive effect on the protease activity at 20 µM: 20 µM phytochemical, 0.5 µM enzyme, 37°C 30 min
# [2] = target: T1, SARS-CoV-2 M^pro (MBP-cleaved) (Severe acute respiratory syndrome coronavirus 2, UniProt P0DTD1); test: Enzyme activity of MBP-cleaved M^pro with EGCG/myricetin, with or without GSH; assay type: biochemical; conditions: 0.5 µM enzyme
# [3] = target: T1, SARS-CoV-2 M^pro (MBP-cleaved); test: Quinone detection on blotted membrane by redox-cycling; assay type: binding; conditions: 2.5 µM phytochemical, 1 mM GSH
# [4] = target: T1, SARS-CoV-2 M^pro (MBP-cleaved); test: Free thiols in the enzyme by biotin incorporation; conditions: iodoacetyl-LC-biotin labelling
# [5] = target: T1, SARS-CoV-2 M^pro (MBP-cleaved); test: Intact MS of M^pro after incubation with phytochemicals; assay type: binding; conditions: 0.5 µM enzyme; for covalent adduct on M^pro by intact MS: 1 µM phytochemical, 37°C 30 min
Molecule,IC50 [1] [µM],suppressive effect on the protease activity at 20 µM [1],covalent adduct on M^pro by intact MS [5],other results
"S=C=NCCc1ccccc1 [PEITC, phenethyl isothiocyanate]",14.2,–,–,–
O=c1c(O)c(-c2cc(O)c(O)c(O)c2)oc2cc(O)cc(O)c12 [myricetin],–,considerably inhibited,One or two molecule(s),"enzyme activity with increasing concentration ([2]; 0–5 µM, substrate reaction 15 min): decreased accordingly; enzyme activity loss in the presence of GSH ([2]; 2.5 µM phytochemical, 1 mM GSH, 30 min): canceled; quinone staining in the presence of GSH [3]: canceled; free thiols in the M^pro with increasing concentration [4]: decreased; dose dependence of adduction by intact MS ([5]; 0–5 µM): dose-dependently observed"
O=c1c(O)c(-c2ccc(O)cc2)oc2c(O)c(O)cc(O)c12 [herbacetin],19.2,–,covalent adducts were not observed,–
myricitrin,–,–,covalent adducts were not observed,–
"OC[C@H]1O[C@@H](Oc2cc3c(O)cc(O)cc3[o+]c2-c2ccc(O)c(O)c2)[C@H](O)[C@@H](O)[C@@H]1O.[Cl-] [cyanidine-3-glucoside, Cyanidine-3-glucoside chloride]",–,did not show suppressive effect,–,–
O=c1cc(-c2ccccc2)oc2cc(O)c(O)c(O)c12 [baicalein],–,–,covalent adducts were not observed,–
O=c1c(O)cc([C@H]2Oc3cc(O)cc(O)c3C[C@H]2O)cc2c([C@H]3Oc4cc(O)cc(O)c4C[C@H]3O)cc(O)c(O)c12 [theaflavin],6.1,considerably inhibited,One or two molecule(s),–
"C=CCN=C=S [AITC, Allyl isothiocyanate]",33.3,–,–,–
"S=C=NCc1ccccc1 [BITC, benzyl isothiocyanate]",4.5,considerably inhibited,–,–
"C[C@@H]1O[C@@H](OC[C@H]2O[C@@H](Oc3c(-c4ccc(O)c(O)c4)oc4cc(O)cc(O)c4c3=O)[C@H](O)[C@@H](O)[C@@H]2O)[C@H](O)[C@H](O)[C@H]1O [rutin, quercetin-3-O-rutinoside]",–,did not show suppressive effect,–,–
COc1ccc(-c2cc(=O)c3c(O)c(OC)c(O[C@@H]4O[C@H](CO[C@@H]5O[C@@H](C)[C@H](O)[C@@H](O)[C@H]5O)[C@@H](O)[C@H](O)[C@H]4O)cc3o2)cc1 [pectolinarin],–,did not show suppressive effect,–,–
O=c1c(O)c(-c2ccc(O)c(O)c2)oc2cc(O)cc(O)c12 [quercetin],–,did not show suppressive effect,–,–
Oc1cc(O)cc(/C=C/c2ccc(O)c(O)c2)c1 [piceatannol],13.8,–,One or two molecule(s),–
